Drawing on article PMC8910297, “Investigation of the Molecular Details of the Interactions of Selenoglycosides and Human Galectin-3” (International Journal of Molecular Sciences, 2022), this text covers Kd for two compounds.

For assay [1], the target named is T1, Human galectin-3 (hGal-3) (Homo sapiens, UniProt P17931).
T1 construct: gene LGALS3
In words: biochemical.

Assay [2] deals with T1, Human galectin-3 (hGal-3). Put plainly: biochemical. The source holds these as a separate data set.

Like-named read-outs stand apart in the source and are kept apart here.

The Kd is the concentration at which binding is half-saturated. Low readings indicate tighter binding, high ones weaker binding.

T1 sequence (P17931 108-250): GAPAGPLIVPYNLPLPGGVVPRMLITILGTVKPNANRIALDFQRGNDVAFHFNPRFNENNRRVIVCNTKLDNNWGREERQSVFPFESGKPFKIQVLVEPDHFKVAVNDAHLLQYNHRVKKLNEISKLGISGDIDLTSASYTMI

In turn, `OC[C@H]1O[C@@H]([Se][Se][C@@H]2O[C@H](CO)[C@H](O)[C@H](O)[C@H]2O)[C@H](O)[C@@H](O)[C@H]1O` [DSeDG, di(β-D-galactopyranosyl)diselenide] had a Kd in assay [1] of 8.5 ± 2.5 mM.

As for `OC[C@H]1O[C@@H]([Se][C@@H]2O[C@H](CO)[C@H](O)[C@H](O)[C@H]2O)[C@H](O)[C@@H](O)[C@H]1O` [SeDG, di(β-D-galactopyranosyl)selenide], the Kd in assay [2] is 35.2 ± 7.2 µM.
